Experimental data reported in patent US6965033B2, “Bisamidate phosphonate prodrugs” (Metabasis Therapeutics, Inc., priority 1999, dated 2005).
Like-named read-outs stand apart in the source and are kept apart here.

Legend:
[1] = system: Human Liver Phosphoramidase; test: Structure Activity Relationship of Human Liver Phosphoramidase (human liver homogenate); assay type: in vitro ADME; conditions: pH 7.4
Procedure: Human liver, purchased from the Anatomic Gift Foundation (Laurel, Md.), was homogenized in Krebs-bicarbonate buffer and clarified by a slow-speed centrifugation. Prodrug metabolism was evaluated in reaction mixtures containing human liver homogenate (4 mgs protein), 50 mM Tris-HCl, pH 7.4, 10 mM MgCl2, and 10 mM dithiothreitol. At various time intervals over the course of 2 hours, aliquots were removed from the reaction mixtures and deproteinated by addition of methanol to 60%. Following clarification by centrifugation, metabolites were analyzed by reverse phase HPLC with use of a Beckman Ultrasphere ODS column (4.6×150 mm) equipped with an Alltech All-Guard column. The column was equilibrated with 20 mM potassium phosphate, pH 6.2 and eluted with a linear gradient of 0-60% acetonitrile over 20 minutes at a flow rate of 1.5 mL/min and at a temperature of 40° C. UV absorbance was monitored at 300 nm. Most of the prodrugs evaluated were metabolized via a non-rate limiting, esterase-catalyzed step to their monophosphoramidate form within 5 minutes of incubation. The rate of phosphonic acid appearance was therefore essentially a reflection of the rate of the final […] cleavage step. Results for representative prodrugs for which the esterase-catalyzed step was non-rate limiting are shown below: […]

human liver FBPase = target: T1, human liver FBPase (Homo sapiens, UniProt P09467); test: Inhibition of Human Liver FBPase; assay type: biochemical; conditions: read-out: IC50 (hlFBPase)
T1 construct: made in house; host or cells: E. coli BL21
T1 sequence (P09467 2-338 limits assumed): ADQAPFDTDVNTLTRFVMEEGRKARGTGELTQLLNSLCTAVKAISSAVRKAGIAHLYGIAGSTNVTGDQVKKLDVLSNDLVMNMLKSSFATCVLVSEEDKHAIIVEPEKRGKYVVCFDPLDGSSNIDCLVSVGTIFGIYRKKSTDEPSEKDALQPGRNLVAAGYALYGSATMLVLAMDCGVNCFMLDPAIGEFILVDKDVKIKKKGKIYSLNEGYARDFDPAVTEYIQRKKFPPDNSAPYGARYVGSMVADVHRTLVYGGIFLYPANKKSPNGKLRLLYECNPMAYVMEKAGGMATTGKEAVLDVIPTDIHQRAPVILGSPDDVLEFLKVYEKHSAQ
Procedure: […] […] Enzymatic activity was measured spectrophotometrically in reactions that coupled the formation of product (fructose 6-phosphate) to the reduction of dimethylthiazoldiphenyltetrazolium bromide (MTT) via NADP^+ and phenazine methosulfate (PMS), using phosphoglucose isomerase and glucose 6-phosphate dehydrogenase as the coupling enzymes. […] Inhibitor concentrations were varied from 0.01 μM to 10 μM. Reactions were started by the addition of 0.002 units of pure hlFBPase, and were monitored for 7 minutes at 590 nm in a Molecular Devices Plate Reader (37° C.).

rat liver FBPase = target: T2, rat liver FBPase (Rattus norvegicus, UniProt P19112); test: Inhibition of Rat Liver FBPase; assay type: biochemical; conditions: read-out: IC50 (rlFBPase)
T2 construct: made in house; host or cells: E. coli BL21
T2 sequence (P19112 2-363 limits assumed): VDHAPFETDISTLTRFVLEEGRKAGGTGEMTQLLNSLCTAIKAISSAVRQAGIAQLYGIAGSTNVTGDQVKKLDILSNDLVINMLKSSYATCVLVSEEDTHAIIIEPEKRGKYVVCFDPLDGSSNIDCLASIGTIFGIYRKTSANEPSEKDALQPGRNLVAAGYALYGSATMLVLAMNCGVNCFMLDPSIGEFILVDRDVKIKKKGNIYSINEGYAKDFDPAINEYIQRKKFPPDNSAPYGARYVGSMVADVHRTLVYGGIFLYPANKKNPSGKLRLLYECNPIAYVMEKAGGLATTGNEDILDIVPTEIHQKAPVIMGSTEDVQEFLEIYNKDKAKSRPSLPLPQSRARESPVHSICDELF
Procedure: E. coli strain BL21 transformed with a human liver FBPase-encoding plasmid was obtained from Dr. M. R. El-Maghrabi at the State University of New York at Stony Brook. The enzyme was typically purified from 10 liters of recombinant E. coli culture as described (M. Gidh-Jain et al., 1994, The Journal of Biological Chemistry 269, pp 27732-27738). Enzymatic activity was measured spectrophotometrically in reactions that coupled the formation of product (fructose 6-phosphate) to the reduction of dimethylthiazoldiphenyltetrazolium bromide (MTT) via NADP^+ and phenazine methosulfate (PMS), using phosphoglucose isomerase and glucose 6-phosphate dehydrogenase as the coupling enzymes. Reaction mixtures (200 μl) were made up in 96-well microtitre plates, and consisted of 50 mM Tris-HCl, pH 7.4, 100 mM KCl, 5 mM EGTA, 2 mM MgCl2, 0.2 mM NADP, 1 mg/ml BSA, 1 mM MTT, 0.6 mM PMS, 1 unit/ml phosphoglucose isomerase, 2 units/ml glucose 6-phosphate dehydrogenase, and 0.150 mM substrate (fructose 1,6-bisphosphate). Inhibitor concentrations were varied from 0.01 μM to 10 μM. Reactions were started by the addition of 0.002 units of pure hlFBPase, and were monitored for 7 minutes at 590 nm in a Molecular Devices Plate Reader (37° C.).
E. coli strain BL21 transformed with a rat liver FBPase-encoding plasmid was obtained from Dr. M. R. El-Maghrabi at the State University of New York at Stony Brook. Recombinant FBPase was purified as described (El-Maghrabi, M. R., and Pilkis, S. J. (1991) BioChem. Biophys. Res. Commun. 176, 137-144) The enzyme assay was identical to that described above for human liver FBPase.

rat hepatocytes = test: Inhibition of Gluconeogenesis in Rat Hepatocytes; assay type: cell-based; conditions: isolated rat hepatocytes, 10 mM lactate, 1 mM pyruvate, 1 hour, read-out: IC50 Glucose Production
Procedure: Hepatocytes (75 mg wet weight/ml) were incubated in 1 ml Krebs-bicarbonate buffer containing 10 mM Lactate, 1 mM pyruvate, 1 mg/ml BSA, and test compound concentrations from 1 to 500 μM. […] After 1 hour, an aliquot (0.25 ml) was removed, transferred to an Eppendorf tube and centrifuged. 50 μl of supernatant was then assayed for glucose content using a Sigma Glucose Oxidase kit as per the manufacturer's instructions.

[2] = system: Zucker Diabetic Fatty (ZDF rat); test: Acute Oral Efficacy in the ZDF Rat; assay type: in vivo; conditions: for Blood Glucose, T6h: 6 h after 60 mg/kg oral; for Blood Glucose, % Change: baseline to 6 h, 60 mg/kg oral; for Blood Glucose, Tbaseline: baseline, 60 mg/kg oral group
Procedure: Methods: ZDF rats were purchased from Genetics Inc (Indianapolis, Ind.) at 8 weeks of age. Animals were maintained under standard vivarium conditions and provided with Purina 5008 chow and water ad libitum. At 10-12 weeks of age, rats with blood glucose levels>500 mg/dl were selected and dosed orally either with vehicle (PEG 400), or prodrug (60 mg/kg). Blood glucose levels were monitored at regular intervals for 6 hours following dosing. Blood samples were taken from tail vein nicks and analyzed by means of a HemoCue glucose analyzer (Hemocue, Mission Viejo, Calif.). Statistical analysis was performed using the Student's t test. Means±standard error of the means are shown.

## CCCSc1sc(N)nc1-c1ccc(P(=O)(NC2(C(=O)OCC)CCCC2)NC2(C(=O)OCC)CCCC2)o1 [Compound 52.12, 2-Amino-propylthio-4-[2-{5-(N,N′-bis(1-ethoxycarbonyl)cyclopentyl)phosphonamido}furanyl]thiazole]
[1]
  Phosphoramidase Activity (Rate of 3.1 or 3.58 production, nmoles/mn/mg liver protein): 0.032 nmoles/mn/mg liver protein

## CCCc1cnc(N)nc1-c1ccc(P(=O)(O)O)o1 [Compound 16.1, 2-amino-5-propyl-4-[2-(5-phosphono)furanyl]pyrimidine]
Human liver FBPase
  IC50: 60 nM
Rat liver FBPase
  IC50: 1800 nM
Rat hepatocytes; Hepatocyte
  IC50: 10000 nM
other
  melting point: 258 to 259 °C

## CCOC(=O)C(C)(C)NP(=O)(NC(C)(C)C(=O)OCC)c1ccc(-c2nc(N)sc2CC(C)C)o1 [Compound 50.9]
Rat hepatocytes
  IC50: 2200 nM
[2]
  Blood Glucose, T6h: 410 ± 18 mg/dL
  Blood Glucose, % Change: −32%
  Blood Glucose, Tbaseline: 602 ± 26 mg/dL

## CCCSc1sc(N)nc1-c1ccc(P(=O)(N[C@@H](CCC)C(=O)OCC)N[C@@H](CCC)C(=O)OCC)o1 [Compound 52.16]
[1]
  Phosphoramidase Activity (Rate of 3.1 or 3.58 production, nmoles/mn/mg liver protein): 0.033 nmoles/mn/mg liver protein

## CCOC(=O)[C@H](Cc1ccccc1)NP(=O)(N[C@@H](Cc1ccccc1)C(=O)OCC)c1ccc(-c2nc(N)sc2CC(C)C)o1 [Compound 50.19, 2-Amino-5-isobutyl-4-{2-[5-(N,N′-bis((S)-1-ethoxycarbonyl-2-phenyl)ethyl)phosphonamido]furanyl}thiazole]
[1]
  Phosphoramidase Activity (Rate of 3.1 or 3.58 production, nmoles/mn/mg liver protein): 0.029 nmoles/mn/mg liver protein

## COC(=O)[C@H](CC(C)C)NP(=O)(N[C@@H](CC(C)C)C(=O)OC)c1ccc(-c2nc(N)sc2CC(C)C)o1 [Compound 50.12, 2-Amino-5-isobutyl-4-{2-[5-(N,N′-bis((S)-1-methoxycarbonyl-3-methyl)butyl)phosphonamido]furanyl}thiazole]
[1]
  Phosphoramidase Activity (Rate of 3.1 or 3.58 production, nmoles/mn/mg liver protein): 0.022 nmoles/mn/mg liver protein

## Cc1nc(-c2ccc(P(=O)(O)O)o2)c(CC(C)C)s1 [Compound 3.2, 2-Methyl-5-isobutyl-4-[2-(5-phosphono)furanyl]thiazole]
Rat liver FBPase
  IC50: 2500 nM
Rat hepatocytes; Hepatocyte
  IC50: 26000 nM

## CCCSc1sc(N)nc1-c1ccc(P(=O)(N[C@@H](COC(C)(C)C)C(=O)OC)N[C@@H](COC(C)(C)C)C(=O)OC)o1 [Compound 52.8, 2-Amino-5-propylthio-4-{2-[5-(N,N′-bis(S)-1-methoxycarbonyl-2-(t-butoxy)ethyl)phosphonamido]furanyl}thiazole]
[1]
  Phosphoramidase Activity (Rate of 3.1 or 3.58 production, nmoles/mn/mg liver protein): 0.025 nmoles/mn/mg liver protein

## CCCc1oc(N)nc1-c1ccc(P(=O)(O)O)o1 [Compound 10.2, 2-Amino-5-propyl-4-[2-(5-phosphono)furanyl]oxazole]
Rat liver FBPase
  IC50: 2500 nM
Rat hepatocytes; Hepatocyte
  IC50: 16000 nM

## CCOC(=O)CNP(=O)(NCC(=O)OCC)c1ccc(-c2nc(N)sc2CC(C)C)o1 [Compound 50.8]
[1]
  Phosphoramidase Activity (Rate of 3.1 or 3.58 production, nmoles/mn/mg liver protein): 0.019 nmoles/mn/mg liver protein

## CCOC(=O)CN(C)P(=O)(c1ccc(-c2nc(N)sc2CC(C)C)o1)N(C)CC(=O)OCC [Compound 50.10, 2-Amino-5-isobutyl-4-{2-[5-(N,N′-bis(ethoxycarbonylmethyl)-N,N′-dimethylphosphonamido)]furanyl}thiazole]
[1]
  Phosphoramidase Activity (Rate of 3.1 or 3.58 production, nmoles/mn/mg liver protein): 0.005 nmoles/mn/mg liver protein

## CCCSc1sc(N)nc1-c1ccc(P(=O)(NC(C)C(=O)OC(C)C)NC(C)C(=O)OC(C)C)o1 (stereo not drawn) [Compound 50.20, 2-Amino-5-propylthio-4-{2-[5-(N,N′-(1-methyl-ethoxycarbonyl)ethyl)phosphonamido]furanyl}thiazole]
[1]
  Phosphoramidase Activity (Rate of 3.1 or 3.58 production, nmoles/mn/mg liver protein): 0.085 nmoles/mn/mg liver protein

## CC(C)Cc1sc(N)nc1-c1ccc(P(=O)(N[C@@H](C)C(=O)OCc2ccccc2)N[C@@H](C)C(=O)OCc2ccccc2)o1 [Compound 50.2, 2-Amino-5-isobutyl-4-[2-(5-N,N-bis(L-alanine acid dibenzyl ester)phosphonoamido)furanyl]thiazole]
Rat hepatocytes
  IC50: 2100 nM
[2]
  Blood Glucose, T6h: 415 ± 15 mg/dL
  Blood Glucose, % Change: −30%
  Blood Glucose, Tbaseline: 591 ± 35 mg/dL
